According to PMC9818021, “Targets, Mechanisms and Cytotoxicity of Half-Sandwich Ir(III) Complexes Are Modulated by Structural Modifications on the Benzazole Ancillary Ligand” (Cancers, 2022):
Entries after “also recorded” stand apart in the source; their conditions may differ.

Key:
BSA = target: T1, BSA (Bos taurus, UniProt P02769); experiment: Native PAGE of BSA with iridium complexes; type: binding, bovine; conditions: BSA 3 µM, CD/CP = 10, overnight
T1 construct: purchased Merck Life Science S.L.U., Madrid, Spain
T1 sequence (P02769 25-607): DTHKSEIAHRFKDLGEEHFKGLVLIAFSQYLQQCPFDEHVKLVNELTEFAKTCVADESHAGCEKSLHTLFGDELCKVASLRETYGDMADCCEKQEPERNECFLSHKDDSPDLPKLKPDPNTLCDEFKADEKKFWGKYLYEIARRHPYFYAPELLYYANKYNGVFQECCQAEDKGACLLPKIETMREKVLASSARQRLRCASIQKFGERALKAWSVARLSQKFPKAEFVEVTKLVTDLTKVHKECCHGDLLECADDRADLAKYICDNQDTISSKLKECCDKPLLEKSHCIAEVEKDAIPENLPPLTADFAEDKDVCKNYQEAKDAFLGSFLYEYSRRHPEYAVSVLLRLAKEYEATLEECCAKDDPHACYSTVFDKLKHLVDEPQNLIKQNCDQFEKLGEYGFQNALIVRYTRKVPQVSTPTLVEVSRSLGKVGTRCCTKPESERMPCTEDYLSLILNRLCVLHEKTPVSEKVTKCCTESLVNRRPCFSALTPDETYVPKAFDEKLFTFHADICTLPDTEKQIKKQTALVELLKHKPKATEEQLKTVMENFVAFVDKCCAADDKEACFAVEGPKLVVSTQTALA
Procedure: Native protein electrophoresis. The interaction between BSA and iridium complexes was studied using native polyacrylamide gel electrophoresis (PAGE). The BSA concentration was 3 µM and the CD/CP ratio was 10. The samples of BSA/Ir-complexes were incubated overnight. The samples were mixed with a sample buffer (glycerol and bromophenol) and loaded into a 10% polyacrylamide gel for PAGE analysis (BioRad electrophoresis accessories). The gel was run at 80 V for 3 h, and then it was stained and destained before the gel was imaged using BioRad Gel Doc XR+ molecular imager. The staining solution contains 45% MeOH, 10% glacial acetic acid, 45% H2O and 0.1% brilliant blue, whereas the destaining solution consists of 20% MeOH, 10% glacial acetic acid and 70% H2O.

Calf thymus DNA [1] = experiment: Kinetics of covalent binding to DNA (UV-vis, NMR); conditions: for Covalent binding to DNA: UV-Vis and NMR; for kc x 103 (rate constant of covalent binding to DNA): values are kc x 103, CP/CD = 20
Procedure: Materials. The iridium chloride salt (IrCl3·nH2O) was purchased from Johnson Mattey. The ligands 2-phenylbenzimidazole, 2-(2′-pyridylbenzimidazole), 2-(2′-aminophenylbenzimidazole), 2-(2′-aminophenylbenzothiazole), 2-(2′-hydroxyphenylbenzimidazole) and 2-(2′-hydroxyphenylbenzothiazole) were purchased from Sigma-Aldrich. The ligands 2-phenyl-N-methyl-benzimidazole and 2-(2′-pyridyl)l-N-methyl-benzimidazole were prepared according to slightly modified reported protocols. Deuterated solvents were obtained from SDS and Euriso-top. Unless otherwise specified, all the biological reagents were purchased from Merck Life Science S.L.U., Madrid, Spain. Calf thymus DNA provided as a highly polymerized lyophilized sodium salt was dissolved into doubly-deionized water and sonicated with an MSE-Sonyprep sonicator to reduce the polymer length at approximately 1000 base-pairs. The molar DNA concentration in base pairs, ε (260 nm) = 13,200 M^−1 cm^−1 [49], will be expressed as CP. BSA was supplied as crystallized and lyophilized powder (≥98%, agarose gel electrophoresis and ≤0.005% fatty acids); the BSA concentration of the stock solutions was spectrophotometrically determined as ε (278 nm) = 45,000 M^−1 cm^−1. All aqueous solutions were prepared with MilliQ-grade water using a Direct-Q8UV system from Millipore (Millipore Ibérica S.A., Madrid, Spain). All solvents were of analytical grade. The chemical studies were carried out in aqueous solutions at 25 °C, I = 2.5 mM sodium cacodylate (NaCaC) and pH between 6.0 and 7.1 unless other conditions are stated. All buffers with the biological components were of biological grade and used as received.
The UV-vis measurements were performed with a Hewlett-Packard 8453A (Agilent Technologies, Palo Alto, CA, USA) photodiode array spectrophotometer with a Peltier temperature control system. Titrations were carried out at 25 °C by adding increasing amounts of DNA solution to the iridium complex solution. The pKa values were measured by analysing the absorbance change of iridium complex solutions recorded at different pH values. The melting experiments were carried out using a DNA solution varying the CIr-complex/CDNA (CD/CP) ratio from 0 to 1, keeping CP constant and recording the absorbance spectra while heating from 25 to 90 °C at 0.3 °C/min.
The slow kinetic measurements were performed with the previous spectrophotometer while the fast kinetic measurements were performed in a stopped flow Bio-Logic SFM-300 spectrophotometer with an absorbance detection system and dead time below 3 ms. The kinetic curves, obtained averaging out at least five shots, were analysed with the Jandel (AISN software, Mapleton, OR) fitting package.
2 - Interaction wit h DNA
Aquo- complexes bind DNA(N7) more easily than their chlorido analogous[1],[2].
complexes were incubated overnight until the aquation process i s co m ple t ed. Water-insoluble
compounds were firstly dissolved in DMSO and then diluted in water.
From the fitting of absorbance-time graphs (Figure S8 ) to a biexponential analysis, two rate
constants were obtained. The fast reaction could be related to covalent binding, being k c t he
to DNA/Ir-complex rearrangements, so it was disregarded.
0. 174 3 [ N, NH] 4 [ N, NMe ]
Figure S13. Biexponential kinetic curves of DNA with A) 3[N,NH] CD = 1.0 3×1 0-5 M, B) 4[N,NMe] CD =
M, F) 8[CO,S] C D = 9.4 0×1 0- 6 M. CP/CD = 20.
Table S10. Rate constants for the covalent binding between the complexes and DNA.
The formation of covalent DNA/Ir-complex product (PD), can be represented according to the
where P represents the polynucleotide DNA and D the Iridium -metal complexes. Henceforth, CD
and CP stand for the analytical D and P concentrations, respectively.
Nevertheless, we observed that for each complex, the kc values remained essentially constant
with the increment of CP (Figure S9 ), proving that the reaction is monomolecular. Therefore, PD […]

Calf thymus DNA [2] = experiment: DNA melting temperature (DSC); type: binding; conditions: as a function of CD/CP, overnight incubation
Procedure: Differential scanning calorimetry (DSC) studies were performed in a nano DSC (TA Instruments, Newcastle, USA) to determine the melting temperature of DNA in the absence and in the presence of different amount of the Ir(III) complexes. Cells were 300 μL platinum capillary tubes. Measurements were performed by heating the dye/polynucleotide system from 20 to 90 °C, at 1 °C/min scan rate and 3 atm pressure. To reduce the formation of bubbles upon heating to a minimum, the reference and the sample solutions were previously degassed for 30 min in a degassing station (TA Instruments, Newcastle, USA). The thermograms recorded were analysed with the NanoAnalyze 2.0 software. The buffer–buffer baseline was run at least five heating/cooling cycles until the heating was reproducible, and then, it was subtracted from the sample data.

Qualitative solubility = type: physicochemical; conditions: 1-2 mg, solvent up to 1 mL
Procedure: Solubility. The solubility of the complexes was qualitatively assessed. Different solvents were added drop-by-drop while shaking to a small amount of complex (around 1–2 mg) in a vial until the solvent added exceeded 1 mL. Afterwards, it was checked if the solid was or not completely dissolved and/or if the solution got coloured.

SMILES	Interaction with BSA (BSA)	Covalent binding to DNA (Calf thymus DNA [1])	kc x 103 (rate constant of covalent binding to DNA) (Calf thymus DNA [1])	∆Tm of DNA (Calf thymus DNA [2])	also measured
Cc1c(C)c(C)[c-](C)c1C.[Cl-].[Cl][Ir]1[NH2+]c2ccccc2-c2[nH]c3ccccc3[n+]21 [5[CNH2,NH], [(η^5-Cp*)IrCl(κ^2-N,N-apbim)]Cl]	do not interact with the protein	able to covalently bind DNA	3.9 ± 0.1 s-1	+5 oC	Solubility in water (Qualitative solubility; listed as 5[CNH2,NH-Cl]): soluble in water; Solubility in water (Qualitative solubility; listed as 5[CNH2,NH-Cl]+): water-soluble
Cc1c(C)c(C)[c-](C)c1C.Cn1c2[n+](c3ccccc31)[Ir]([Cl])[n+]1ccccc1-2.[Cl-] [4[N,NMe], [(η^5-Cp*)IrCl(κ^2-N,N-pyMebim)]Cl]	interactions	able to covalently bind DNA	16 ± 1 s-1	-14 oC	Solubility in water (Qualitative solubility; listed as 4[N,NMe-Cl]): soluble in water; Solubility in water (Qualitative solubility; listed as 4[N,NMe-Cl]+): water-soluble
Cc1c(C)c(C)[c-](C)c1C.[Cl-].[Cl][Ir]1[NH2+]c2ccccc2-c2sc3ccccc3[n+]21 [6[CNH2,S], [(η^5-Cp*)IrCl(κ^2-N,N-apbtz)]Cl]	do not interact with the protein	able to covalently bind DNA	6.4 ± 0.2 s-1	+21 oC	Solubility in water (Qualitative solubility): water-soluble
Cc1c(C)c(C)[c-](C)c1C.[Cl-].[Cl][Ir]1[n+]2ccccc2-c2[nH]c3ccccc3[n+]21 [3[N,NH], [(η^5-Cp*)IrCl(κ^2-N,N-pybim)]Cl]	interactions	able to covalently bind DNA	20 ± 2 s-1	-35 oC	Solubility in water (Qualitative solubility; listed as 3[N,NH-Cl]): soluble in water; Solubility in water (Qualitative solubility; listed as 3[N,NH-Cl]+): water-soluble
Cc1c(C)c(C)[c-](C)c1C.[Cl][Ir]1[O]c2ccccc2-c2[nH]c3ccccc3[n+]21 [7[CO,NH], [(η^5-Cp*)IrCl(κ^2-O,N-hpbim)]]	interactions	able to covalently bind DNA	3.7 ± 0.1 s-1	0 oC	Solubility in water (Qualitative solubility; listed as 7[CO,NH-Cl]): insoluble in water; also recorded: soluble in DMSO, but not in water
Cc1c(C)c(C)[c-](C)c1C.Cn1c2[n+](c3ccccc31)[Ir]([Cl])[c]1ccccc1-2 [2[C,NMe], [(η^5-Cp*)IrCl(κ^2-N,C-NMepbim)]]	do not interact with the protein	ruled out	–	0 oC	Solubility in water (Qualitative solubility; listed as 2[C,NMe-Cl]): insoluble in water; also recorded: soluble in DMSO, but not in water
Cc1c(C)c(C)[c-](C)c1C.[Cl][Ir]1[c]2ccccc2-c2[nH]c3ccccc3[n+]21 [1[C,NH], [(η^5-Cp*)IrCl(κ^2-N,C-pbim)]]	do not interact with the protein	ruled out	–	0 oC	Solubility in water (Qualitative solubility; listed as 1[C,NH-Cl]): insoluble in water; also recorded: soluble in DMSO, but not in water
Cc1c(C)c(C)[c-](C)c1C.[Cl][Ir]1[O]c2ccccc2-c2sc3ccccc3[n+]21 [8[CO,S], [(η^5-Cp*)IrCl(κ^2-O,N-hpbtz)]]	interacts with BSA	able to covalently bind DNA	6.0 ± 0.2 s-1	0 oC	Solubility in water (Qualitative solubility; listed as 8[CO,S-Cl]): insoluble in water; also recorded: soluble in DMSO, but not in water
